Here are results for three molecules from patent US9107879B1, “Methods of increasing the cytotoxicity of chemotherapeutic agents with multisubstrate inhibitors of histone, protein-lys, polyamine acetylation, and polyamine metabolism” (Vanderbilt University, priority 2010, dated 2015).

The structures appear in SMILES notation.

The target of one assay is T1, p300 catalytic domain (Homo sapiens, UniProt Q09472).
T1 construct: the catalytic domain of p300(965-1810); purchased Active Motif, Carlsbad, Calif
T1 sequence (Q09472 965-1810): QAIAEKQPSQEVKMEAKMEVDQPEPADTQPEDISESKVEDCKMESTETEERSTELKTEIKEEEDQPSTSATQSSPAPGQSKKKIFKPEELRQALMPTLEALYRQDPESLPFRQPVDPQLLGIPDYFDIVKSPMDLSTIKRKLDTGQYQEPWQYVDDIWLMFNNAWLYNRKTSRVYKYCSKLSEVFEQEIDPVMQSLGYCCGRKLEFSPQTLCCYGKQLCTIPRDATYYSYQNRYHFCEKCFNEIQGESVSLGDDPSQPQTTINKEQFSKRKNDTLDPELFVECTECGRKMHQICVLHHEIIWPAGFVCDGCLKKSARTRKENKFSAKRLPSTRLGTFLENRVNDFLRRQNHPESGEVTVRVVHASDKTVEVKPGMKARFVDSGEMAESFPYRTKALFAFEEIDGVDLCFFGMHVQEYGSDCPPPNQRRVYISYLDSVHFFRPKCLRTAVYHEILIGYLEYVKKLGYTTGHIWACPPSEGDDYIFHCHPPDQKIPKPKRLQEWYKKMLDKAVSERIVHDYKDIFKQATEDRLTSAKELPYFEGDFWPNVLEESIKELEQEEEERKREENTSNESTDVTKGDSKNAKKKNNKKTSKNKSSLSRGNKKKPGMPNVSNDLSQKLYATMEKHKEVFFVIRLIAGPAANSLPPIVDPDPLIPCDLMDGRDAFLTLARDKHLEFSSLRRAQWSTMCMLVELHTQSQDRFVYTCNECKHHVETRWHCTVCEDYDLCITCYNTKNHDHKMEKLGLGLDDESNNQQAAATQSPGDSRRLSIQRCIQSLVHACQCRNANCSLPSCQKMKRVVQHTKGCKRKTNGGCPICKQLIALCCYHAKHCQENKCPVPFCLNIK
The assay is described as follows: fluorescent HAT assay kit (Active Motif), 96-well. Type of assay: biochemical. How it is done: (A) Structures of compound 1a (spermidine CoA), and the acetylated side chain of a lysine residue of a polypeptide chain. (B) Inhibition of p300 acetylating activity as a function of 1a concentration. The catalytic domain of recombinant p300 (1284-1660) was assayed under steady state conditions using an N-terminal acetylated histone H4 peptide substrate, Ac-H4(1-19)-NH2. Closed circles represent experimental data points; plain line represents theoretical profile based on data reduction software (Prism) using a one site inhibition model. (C) In vitro assay of p300 activity using a 96-well assay kit (ActivMotif) and an H3 peptide substrate (5-23), according to manufacturer's instructions. Bars represent average of duplicates. […]
Reactions were set up in duplicate following the protocol supplied by the kit. […] Activity is measured in fluorescence units. […]
Assays were performed using the fluorescent HAT assay kit (Active Motif, Carlsbad, Calif.), an H3 peptide as substrate (residues 5-23), the p300 catalytic domain as enzyme, and 50 μM inhibitor in duplicate, according to the manufacturer's instructions. […] The reaction product, CoASH, was detected spectrophotometrically by reaction with 5,5′-dithiobis-2-nitrobenzoic acid (DTNB). Assays were carried out at 30° C. for 30 minutes, conditions which had previously been determined in kinetic assays to sufficient to achieve steady state.

The subject of assay [1] is normal GT41F human skin fibroblast cells. The assay can be described thus: [3H]-thymidine incorporation DNA synthesis assay. The class given is cell-based. To be noted: 1a 50 μM; camptothecin 5 nM 18 hours. From the text:
Cells were either labeled immediately before treatment (starting DNA synthesis rate), or subjected to the indicated treatments and then pulsed on successive days until day 4. DNA synthesis is represented as the percent of starting DNA synthesis rate.
The present inventors used a 96-well viability assays as described in Saadatmandi et al (Cancer Gene Therapy (2002) 9:930-9) to examine the effect of the spermidine-CoA inhibitor disclosed previously on DNA synthesis in normal GT41F human skin fibroblast cells, as well as its combined effect with camptothecin. GT41F cells were plated in 96-well plates at 3000 cells per well. […] Following the 6-hour labeling, cells were harvested and incorporation of [^3H]-thymidine was determined by scintillation counting.
On the technique in general: Incorporation of labelled thymidine or its analogues reports DNA synthesis.

The subject of assay [2] is DU 145 prostate cancer cells. The assay is described as follows: gamma-H2A.X immunofluorescence. The class given is cell-based. To be noted: 8 hours, 5 nM camptothecin alone. From the text:
The immuno fluorescence images on the left and right sides of the middle scheme illustrate this visually. […] Cells were fixed and stained with a rabbit antibody to the histone variant, γ-H2A.X, a marker for DNA double stranded breaks, followed by staining with a fluorescein (FITC)-tagged goat anti rabbit secondary antibody. Nuclei were stained with Hoescht 33345.

The test system of assay [3] is BT20 breast cancer cell line (TNBC). The assay is described as follows: 3-day viability assay. To be noted: spd-2a increasing doses; camptothecin 5 nM. The class given is cell-based. The source says:
The effect of spd-2a on the BT20 breast cancer cell line derived form a spontaneous TNBC with wild-type BrCal was examined. […] Having previously established that spd-2a is a therapy sensitizer, the present inventors then examined the combined effects of spd-2a and camptothecin (the basis for the chemotherapeutic drug, Irinotecan).

For the molecule `CC(C)(COP(=O)(O)OP(=O)(O)OC[C@H]1O[C@@H](n2cnc3c(N)ncnc32)[C@H](O)[C@@H]1OP(=O)(O)O)[C@@H](O)C(=O)NCCC(=O)NCCSCC(=O)NCCCNCCCCN` [1a, spermidine[N1]-CoA], the “suppression of p300HAT-mediated incorporation of acetyl groups relative to control enzyme” value on p300 catalytic domain (50 μM inhibitor, H3 peptide substrate, FIG. 1C) is recorded as 88%.

In the case of `CC[C@@]1(O)C(=O)OCc2c1cc1n(c2=O)Cc2cc3ccccc3nc2-1` [camptothecin], in assay [1], the “effect on incorporation of [3H]-thymidine, single agent” value is recorded as “virtually no effect”. The “DNA damage by γ-H2A.X staining, single agent” value in assay [2] is listed as “minimal damage”. The “3-day viability, single agent” value in assay [3] is “no effect”.

Take `CC(=O)NCCSCC(=O)NCCCNCCCCNCCCN` [spm-3]: the “p300 HAT inhibition in vitro” value on p300 catalytic domain (kit assay, 2a at 50 μM) was “HAT inhibitors”.
